Data from patent US20250223301A1, “KINASE INHIBITORS, PREPARATION METHODS AND USES THEREOF” (InventisBio Co., Ltd., priority 2022, published 2025).
pEC50, pIC50: −log10 of the molar value.

Experiments:
[1] = molecular target: DGKz (Homo sapiens (Human), UniProt Q13574); test: DGK ADP-Glo kinase assay (DGKz); assay type: biochemical; details: 5 nM DGKz, 15 uM ATP
Procedure: Luminescence was recorded using an Tecan SPARK microplate reader.

[2] = molecular target: DGKa (Homo sapiens (Human), UniProt P23743); test: biochemical;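 also: biochemical DGK kinase assay, ADP-Glo luminescence from ADP made by phosphorylating 1,2-dioleoyl-sn-glycerol, 20 min compound preincubation then 40 min reaction at 25 °C, 1% DMSO control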
Procedure: The DGKa and DGKz kinase assays were performed using Promega ADP-Glo kit (Promega, Cat #V9102). One microliter test compound was added to a 384-well plate. Reactions were performed in a 5 uL volume by adding 2 uL mixture of DGK enzyme and ATP in assay buffer (50 mM MOPS pH 7.5, 100 mM NaCl, 10 mM MgCl2, 1 mM CaCl2, 0.0025% BSA, and 1 mM DTT). […] The enzyme solution was incubated with test compound at 25 ? for 20 min. […] The reaction was initiated by the addition of 2 uL of substrate solution (7 uM 1.2-dioleoyl-sn-glycerol, 5 mM octyl-b-D-glucopyranoside) in the 5 uL assay volume. The resulting mixture was incubated at 25° C. for 40 minutes. Next, 5 uL of ADP-Glo-reagent was added to the plate and incubated for 40 minutes. Then 10 uL of kinase detection reagent was added and incubated for 30 minutes. Luminescence was recorded using an Tecan SPARK microplate reader. 1% DMSO vehicle was used as control and no enzyme well was used as blank well.

[3] = system: PBMC; test: Human PBMC IL-2 assay; assay type: cell-based; details: anti-CD3/CD28 stimulation overnight, IL-2 level
Procedure: PBMC (frozen) obtained from health donor were thawed in RPMI-1640 medium with 10% FBS and incubated for 4 h at 37° C. In a 96-well plate, −200,000 PBMC cells in 160 uL were added to each assay well. Ten microliter compound solution (10 uM to 0.6 nM, 8 points with 4-fold dilution) were added to cells in each well and incubated for 60 minutes at 37° C. Then 30 uL anti-CD3/CD28 antibody (Catalog #10991, Stemcell) were added to cells and incubated overnight at 37° C. After the incubation, 16 uL supernatants were transferred into a new 384-well white assay plate for cytokine analysis. IL-2 level was quantified using Human IL-2 kit (Catalog #62HIL02PEG, Cisbio) as described in the manufacturer manual.
(§1) X is log of compound concentration, Y is the IL-2 concentration, increasing as X increases.

[4] = system: Jurkat cells; test: Jurkat IL-2 assay; assay type: cell-based; details: Homo sapiens, anti-CD3/CD28 stimulation overnight, IL-2 level
Procedure: Jurkat cells (ATCC) were cultured in RPMI-1640 medium supplemented with 10% FBS. In a 96-well plate, −250,000 cells in 130 uL were added to each assay well. Ten microliter compound solution (5 uM to 2.3 nM, 8 points with 3-fold dilution) were added to cells in each well and incubated for 60 minutes at 37° C. Then 10 uL anti-CD3/CD28 antibody (Catalog #10991, Stemcell) were added and incubated overnight at 37° C. After the incubation, 16 uL supernatants were transferred into a new 384-well white assay plate for cytokine analysis. IL-2 was quantified using Human IL-2 kit (Catalog #62HIL02PEG, Cisbio) as described in the manufacturer manual.
as §1

DGKa, sequence (P23743 whole entry): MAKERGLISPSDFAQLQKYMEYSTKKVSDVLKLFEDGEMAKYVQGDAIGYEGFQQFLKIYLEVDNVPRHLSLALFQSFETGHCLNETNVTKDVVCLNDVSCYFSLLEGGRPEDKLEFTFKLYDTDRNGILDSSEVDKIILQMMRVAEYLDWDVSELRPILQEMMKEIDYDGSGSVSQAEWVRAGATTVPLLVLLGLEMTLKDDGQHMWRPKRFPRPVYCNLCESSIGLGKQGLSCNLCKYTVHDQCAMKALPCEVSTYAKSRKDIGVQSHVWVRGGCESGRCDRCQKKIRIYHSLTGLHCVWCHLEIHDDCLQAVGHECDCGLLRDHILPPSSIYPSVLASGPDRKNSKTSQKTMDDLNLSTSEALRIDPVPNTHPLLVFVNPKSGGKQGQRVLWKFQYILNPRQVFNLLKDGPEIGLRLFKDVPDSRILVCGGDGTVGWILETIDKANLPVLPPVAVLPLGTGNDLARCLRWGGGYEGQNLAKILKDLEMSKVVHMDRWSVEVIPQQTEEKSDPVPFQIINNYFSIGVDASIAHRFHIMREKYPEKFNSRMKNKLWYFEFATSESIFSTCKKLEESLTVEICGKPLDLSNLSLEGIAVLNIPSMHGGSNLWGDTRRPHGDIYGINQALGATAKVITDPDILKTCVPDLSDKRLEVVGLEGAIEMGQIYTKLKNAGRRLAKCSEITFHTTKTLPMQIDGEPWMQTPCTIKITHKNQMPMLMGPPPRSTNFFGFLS
DGKz, sequence (Q13574 whole entry): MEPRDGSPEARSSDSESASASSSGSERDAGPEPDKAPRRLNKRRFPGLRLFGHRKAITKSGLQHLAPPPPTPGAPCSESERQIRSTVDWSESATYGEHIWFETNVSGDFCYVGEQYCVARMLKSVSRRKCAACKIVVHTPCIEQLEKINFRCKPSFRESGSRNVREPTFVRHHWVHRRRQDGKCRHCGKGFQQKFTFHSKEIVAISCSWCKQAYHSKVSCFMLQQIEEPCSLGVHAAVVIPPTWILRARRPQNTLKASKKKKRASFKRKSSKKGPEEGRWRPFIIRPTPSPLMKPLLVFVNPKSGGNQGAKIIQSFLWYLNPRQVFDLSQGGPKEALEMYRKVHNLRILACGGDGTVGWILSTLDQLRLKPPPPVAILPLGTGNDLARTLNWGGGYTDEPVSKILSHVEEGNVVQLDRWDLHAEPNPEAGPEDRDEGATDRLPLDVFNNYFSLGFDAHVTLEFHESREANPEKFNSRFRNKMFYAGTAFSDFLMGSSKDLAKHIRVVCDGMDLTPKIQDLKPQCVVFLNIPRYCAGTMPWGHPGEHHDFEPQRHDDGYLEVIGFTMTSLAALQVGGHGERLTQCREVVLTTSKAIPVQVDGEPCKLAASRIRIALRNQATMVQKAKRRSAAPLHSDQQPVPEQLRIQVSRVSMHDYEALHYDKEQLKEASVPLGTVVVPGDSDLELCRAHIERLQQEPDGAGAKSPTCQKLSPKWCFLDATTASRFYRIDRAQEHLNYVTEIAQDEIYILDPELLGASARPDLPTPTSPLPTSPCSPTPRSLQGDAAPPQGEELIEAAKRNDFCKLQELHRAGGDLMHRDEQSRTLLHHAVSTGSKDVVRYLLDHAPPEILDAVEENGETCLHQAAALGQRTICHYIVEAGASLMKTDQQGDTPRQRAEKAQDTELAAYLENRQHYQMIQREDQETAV

| Compound | pIC50 [1] | pIC50 [2] | pEC50 [3] | pEC50 [4] |
| --- | --- | --- | --- | --- |
| CC[C@@H]1C[C@@H](c2nc3cc(C)ccc3o2)CCN1c1nc(=O)n(C)c2cc(OC3CCOC3)c(Cl)cc12 (stereo in doubt) [Compound 96] | 5.55 | 8.40 | – | – |
| CC[C@@H]1C[C@H](c2nc3cc(C)ccc3o2)CCN1c1nc(=O)n(C)c2cc(O[C@H]3CCOC3)c(Cl)cc12 [Compound 91] | 5.22 | 7.54 | – | – |
| CC[C@H]1CN([C@@H](CC)c2ccc(OC(F)(F)F)cc2)[C@H](CC)CN1c1nc2nncn2c2ccc(C#N)nc12 (single isomer, unassigned) [Compound 100] | 7.52 | 9.00 | – | – |
| CC[C@@H]1CN(c2nc3nncn3c3ccc(C#N)nc23)[C@@H](C)CN1[C@H](CC)c1ccc(S(F)(F)(F)(F)F)cc1 (stereo in doubt) [Compound 90] | 6.39 | 8.00 | – | – |
| CC[C@H]1CN([C@@H](CC)c2ccc(C(F)(F)F)nc2)[C@H](CC)CN1c1nc2nncn2c2ccc(C#N)nc12 (stereo in doubt) [Compound 111] | 7.74 | 8.15 | – | – |
| CC[C@@H]1CN2c3c(c(=O)n(C)c4ccc(C#N)nc34)OC[C@@H]2CN1[C@@H](CC)c1ccc(OC(F)(F)F)cc1 (stereo in doubt) [Compound 212] | – | – | 7.41 | 7.96 |
| CC[C@@H]1CN2c3c(c(=O)n(C)c4ccc(C#N)nc34)OC[C@@H]2CN1[C@@H](CC)c1ccc(Cl)cc1 (stereo in doubt) [Compound 244] | – | – | 7.96 | 7.20 |
| C[C@@H]1CN2c3c(c(=O)n(C)c4ccc(C#N)nc34)OC[C@@H]2CN1[C@H](C)c1ccc(C(F)(F)F)cc1 (stereo in doubt) [Compound 222] | – | – | 6.81 | 6.84 |
| CC[C@@H]1CN2c3c(c(=O)n(C)c4ccc(C#N)nc34)OC[C@@H]2CN1[C@H](CO)c1ccc(C(F)(F)F)cc1 (stereo in doubt) [Compound 236] | – | – | 6.23 | 7.01 |
| C[C@@H]1CN2c3c(c(=O)n(C)c4ccc(C#N)nc34)OC[C@@H]2CN1[C@H](C)c1ccc(Cl)c(Cl)c1 (stereo in doubt) [Compound 258] | – | – | 5.96 | 6.12 |
| CC[C@@H](c1ccc(C(F)(F)F)c(Cl)c1)N1C[C@H]2COc3c(c4nc(C#N)ccc4n(C)c3=O)N2C[C@H]1C (stereo in doubt) [Compound 324] | – | – | 7.31 | 7.02 |
| CC[C@@H]1CN2c3c(c(=O)n(C)c4ccc(C#N)nc34)OC[C@@H]2CN1[C@H](CC)c1ncc(C(F)(F)F)cn1 [Compound 330] | – | – | 6.94 | 6.57 |
| CC[C@@H](c1ccc(Cl)cc1F)N1C[C@H]2COc3c(c4nc(C#N)ccc4n(C)c3=O)N2C[C@H]1C (stereo in doubt) [Compound 308] | – | – | 7.74 | 8.05 |
| CC[C@H]1CN2[C@@H](COC[C@@H]2c2ccc(C(F)(F)F)cc2)CN1c1nc(=O)n(C)c2ccc(C#N)nc12 [Compound 193] | – | – | 5.88 | 5.79 |
| CC[C@@H]1CN2c3c(c(=O)n(C)c4ccc(C#N)nc34)OC[C@@H]2CN1[C@@H](CC)c1c(F)ccc(F)c1F (stereo in doubt) [Compound 170] | – | – | 6.73 | 6.61 |
| CC[C@@H]1CN2c3c(c(=O)n(C)c4ccc(C#N)nc34)OC[C@@H]2CN1[C@@H](CC)c1ccc(C(F)(F)F)cc1F (stereo in doubt) [Compound 144] | – | – | 7.21 | 7.12 |
| C[C@@H]1CN2c3c(c(=O)n(C)c4ccc(C#N)nc34)OC[C@@H]2CN1[C@@H](C)c1ccc(C(C)(F)F)cc1 (stereo in doubt) [Compound 304] | – | – | 7.62 | 7.47 |
| CC[C@H]1CN([C@H](C)c2ccc(C(F)(F)F)cc2)[C@H](C)CN1c1nc2nncn2c2ccc(C#N)nc12 (stereo in doubt) [Compound 315] | – | – | 7.20 | 7.05 |
| CC[C@@H](c1ccc(F)c(Cl)c1)N1C[C@H]2COc3c(c4nc(C#N)ccc4n(C)c3=O)N2C[C@H]1C (stereo in doubt) [Compound 238] | – | – | 7.11 | 6.72 |
| CC[C@@H]1CN2c3c(c(=O)n(C)c4ccc(C#N)nc34)OC[C@@H]2CN1[C@@H](CO)c1ccc(C(F)(F)F)cc1 [Compound 235] | – | – | 6.18 | 6.27 |
| CC[C@@H]1CN2c3c(c(=O)n(C)c4ccc(C#N)nc34)OC[C@@H]2CN1[C@H](c1ccc(F)cc1)c1nc(C2CC2)no1 (stereo in doubt) [Compound 160] | – | – | 7.12 | 7.68 |

| Compound | pIC50 [1] | pIC50 [2] | pEC50 [3] | pEC50 [4] |
| --- | --- | --- | --- | --- |
| CC[C@@H](c1ccc(C(F)(F)F)c(F)c1)N1C[C@H]2COc3c(c4nc(C#N)ccc4n(C)c3=O)N2C[C@H]1C (stereo in doubt) [Compound 329] | – | – | 7.27 | 7.01 |
| CC[C@@H]1CN2c3c(c(=O)n(C)c4ccc(C#N)nc34)OC[C@@H]2CN1[C@H](CC)c1ccc(C#N)cc1 (stereo in doubt) [Compound 162] | – | – | 6.10 | 7.00 |
| CC[C@H]1CN([C@@H](C)c2ccc(C(F)(F)F)cc2)[C@H](C)CN1c1nc2nncn2c2ccc(C#N)nc12 (stereo in doubt) [Compound 316] | – | – | 6.13 | 6.15 |
| C[C@@H]1CN2c3c(c(=O)n(C)c4ccc(C#N)nc34)OC[C@@H]2CN1[C@@H](C)c1ccc(Cl)cc1F (stereo in doubt) [Compound 275] | – | – | 7.64 | 7.29 |
| CC[C@@H]1CN2c3c(c(=O)n(C)c4ccc(C#N)nc34)OC[C@@H]2CN1[C@@H](COC)c1ccc(C(F)(F)F)cc1 [Compound 283] | – | – | 7.44 | 7.40 |
| CC[C@@H]1CN2c3c(c(=O)n(C)c4ccc(C#N)nc34)OC[C@@H]2CN1Cc1ccc(C(F)(F)F)cc1 [Compound 265] | – | – | 6.82 | 6.78 |
| CC[C@@H]1CN2c3c(c(=O)n(C)c4ccc(C#N)nc34)OC[C@@H]2CN1[C@@H](CC)c1ccc(C)c(Cl)c1 (stereo in doubt) [Compound 343] | – | – | 7.74 | 7.35 |
| CCC[C@H](c1ccc(Cl)cc1)N1C[C@H]2COc3c(c4nc(C#N)ccc4n(C)c3=O)N2C[C@H]1CC (stereo in doubt) [Compound 312] | – | – | 7.31 | 6.66 |
| CC[C@@H]1CN2c3c(c(=O)n(C)c4ccc(C#N)nc34)OC[C@@H]2CN1[C@H](CC)c1cccc(C(F)(F)F)c1 (stereo in doubt) [Compound 148] | – | – | 6.24 | 6.68 |
| C[C@@H]1CN2c3c(c(=O)n(C)c4ccc(C#N)nc34)OC[C@@H]2CN1[C@@H](C)c1ccc(F)c(Cl)c1 (stereo in doubt) [Compound 260] | – | – | 7.05 | 7.16 |
| CC[C@H]1CN(C2CCCOc3cc(C(F)(F)F)ccc32)[C@H](CC)CN1c1nc(=O)n(C)c2ccc(C#N)nc12 (stereo partly drawn) [Compound 154] | – | – | 6.13 | 6.28 |
| CC[C@@H]1CN2c3c(c(=O)n(CC)c4ccc(C#N)nc34)OC[C@@H]2CN1[C@@H](CC)c1ccc(C(F)(F)F)cc1 (stereo in doubt) [Compound 228] | – | – | 6.64 | 7.06 |
| CC[C@H](c1ccc(C(F)(F)F)c(F)c1)N1C[C@H]2COc3c(c4nc(C#N)ccc4n(C)c3=O)N2C[C@H]1C (stereo in doubt) [Compound 328] | – | – | 6.52 | 6.47 |
| CC[C@@H]1CN2c3c(c(=O)n(C)c4ccc(C#N)nc34)OC[C@@H]2CN1[C@@H](CC)c1ccc(C(F)(F)F)cc1Cl (stereo in doubt) [Compound 207] | – | – | 6.55 | 6.82 |
| CC[C@@H]1CN2c3c(c(=O)n(C)c4ccc(C#N)nc34)OC[C@@H]2CN1[C@H](CC)c1ccc(C(F)(F)F)cc1F (stereo in doubt) [Compound 143] | – | – | 6.75 | 6.32 |
| CC[C@@H]1CN2c3c(c(=O)[nH]c4ccc(C#N)nc34)OC[C@@H]2CN1[C@@H](CC)c1ccc(C(F)(F)F)cc1 [Compound 252] | – | – | 6.97 | 6.91 |
| CC[C@H]1CN([C@H](CC)c2c(Cl)cccc2Cl)[C@H](CC)CN1c1nc2nncn2c2ccc(C#N)nc12 (stereo in doubt) [Compound 209] | – | – | 5.86 | 6.00 |
| CCC[C@@H](c1ccc(C(F)(F)F)cc1)N1C[C@H]2COc3c(c4nc(C#N)ccc4n(C)c3=O)N2C[C@H]1CC (stereo in doubt) [Compound 153] | – | – | 7.07 | 7.37 |
| CC[C@@H]1CN2c3c(c(=O)n(C)c4ccc(C#N)nc34)OC[C@@H]2CN1[C@H](CC)c1c(Cl)cccc1Cl (stereo in doubt) [Compound 239] | – | – | 5.47 | 6.16 |
| Cn1c(=O)nc(N2CCC[C@]3(CC2)CC(c2ccc(OC(F)(F)F)cc2)=NO3)c2nc(C#N)ccc21 (stereo in doubt) [Compound 139] | – | – | 6.06 | 6.60 |
| CC[C@@H]1CN2c3c(c(=O)n(C)c4ccc(C#N)nc34)OC[C@@H]2CN1[C@H](CC)c1ccc(Cl)c(F)c1 (stereo in doubt) [Compound 296] | – | – | 7.17 | 7.04 |
